The values that follow come from US20210269661A1, “INK COMPOSITIONS” (HEWLETT-PACKARD DEVELOPMENT COMPANY, L.P., priority 2018, published 2021).

Each structure is given as a SMILES string.

One data set in a line: Partition coefficient of organic co-solvents (log P 1-octanol/water).
Settings: not given
An excerpt:
The hydrophilicity of the organic co-solvent can be quantified as a partition coefficient. As used herein, “partition coefficient” refers to a concentration ratio of a compound in an equilibrium mixture of two immiscible phases, and can be a measure of the difference in solubility of the compound in the two immiscible phases. Formula I provides an equation of quantifying the hydrophilicity of the organic co-solvents of the present disclosure, as follows: […]
Take `CC1(C)NC(=O)NC1=O` [5,5-dimethyl hydantoin]: the “Partition Coefficient (log P1-octanol/water)” value is on record as −0.40 log P1-octanol/water.
As to `CCCCCCCCO` [Ink 1-octanol, 1-octanol], the “Partition Coefficient (log P1-octanol/water)” value is given as 2.34 log P1-octanol/water.
Still for that read-out and setting: then `O=C1CCCN1CCO` [N-(2-hydroxyethyl)-2-pyrrolidinone], with −0.40 log P1-octanol/water; and `CC1(C)C(=O)N(CCO)C(=O)N1CCO` [di-(2-hydroxyethy)-5,5-dimethylhydantoin], with −1.39 log P1-octanol/water; and `OCCOCCOCCO` [triethylene glycol], with −1.00 log P1-octanol/water.
On the same count and under the same terms, then `O` [water], with −0.825 log P1-octanol/water.

Staying with this data set, now noted: equilibrium mixture of 1-octanol and water.
As to `O=C1CCCN1` [2-pyrrolidone], the “Partition Coefficient (log P1-octanol/water)” value is reported as −0.10 log P1-octanol/water.
On the same count and under the same terms, then `CCC(CO)(CO)CO` [ethylhydroxy propanediol], with −0.50 log P1-octanol/water.
